{"source": "paper PMC11672294", "about": "“The Antipsychotic Drug Aripiprazole Suppresses Colorectal Cancer by Targeting LAMP2a to Induce RNH1/miR‐99a/mTOR‐Mediated Autophagy and Apoptosis” (Advanced Science, 2024)", "note": "Structures can show the parent of a compound that is named as a salt."}
{"tested_on": "HT29", "details": "72 h, relative to DMSO, 10 µM, Relative cell viability (%)", "source_text": "(§1) To investigate the key signaling pathways and biological processes involved in CRC progression, we analyzed the National Center for Biotechnology Information Gene Expression Omnibus (GEO) dataset GSE115313, which included 42 CRC and paired normal tissues (Figure 1A). […] Next, we performed an Annexin V‐fluorescein isothiocyanate (FITC)/propidium iodide (PI) staining assay to determine the effect of aripiprazole on apoptosis in CRC cells. […] A) Principal component analysis of GEO dataset (GSE115313), which includes 42 CRC and paired normal tissues. B) Gene Ontology pathway analysis of the DEPs between CRC and paired normal tissues. […] D) Schematic diagram for identifying anticancer drugs amongst an US Food and Drug Administration‐approved small‐molecule library (616 compounds) using WST‐1 assay. E) HT29 cells were treated with the 616 drugs (10 µM) individually or with dimethyl sulfoxide for 72 h, followed by WST‐1 assay. […] J) Mice bearing HT29‐derived tumor xenografts were intragastrically administered with aripiprazole (10 or 20 mg kg^−1) once every 2 d, n = 6 mice/group. […] Bars, SD; ^* p < 0.05; ^** p < 0.01; ^*** p < 0.001; ns, no significant difference. The WST‐1 Cell Proliferation and Cytotoxicity Assay Kit (Beyotime Biotechnology, Shanghai, China) was used to measure cell viability, as described previously.^[ [10] ^] CRC cells were seeded into 96‐well plates and treated with different drug concentrations. Following that, WST‐1 was added to the plate and incubated with the cells for 2 h, at 37 °C. Absorbance at the wavelength of 450 nm was measured using an automated microplate spectrophotometer (BioTek Instruments, Winooski, VT, USA).", "units": {"Relative cell viability (%)": "%"}}
{"molecule": "COc1ccc2nc([S@@+]([O-])Cc3ncc(C)c(OC)c3C)[nH]c2c1", "note": "[Esomeprazole Sodium]", "Relative cell viability (%)": 105.5}
{"molecule": "C[C@@H]1CCN(C(=O)CC#N)C[C@@H]1N(C)c1ncnc2[nH]ccc12", "note": "[Tofacitinib (CP-690550) Citrate]", "Relative cell viability (%)": 115}
{"molecule": "COc1cc(Nc2ncc(F)c(Nc3ccc4c(n3)N(COP(=O)(O)O)C(=O)C(C)(C)O4)n2)cc(OC)c1OC", "note": "[Fostamatinib (R788)]", "Relative cell viability (%)": 28.64}
{"molecule": "N#CC[C@H](C1CCCC1)n1cc(-c2ncnc3[nH]ccc23)cn1", "note": "[Ruxolitinib (INCB018424)]", "Relative cell viability (%)": 77.41}
{"tested_on": "HT29", "details": "72 h, relative to DMSO; 10 µM", "source_text": "as §1", "units": {"Relative cell viability (%)": "%"}}
{"molecule": "CO[C@H]1/C=C/O[C@@]2(C)Oc3c(C)c(O)c4c(O)c(c(/C=N/N5CCN(C)CC5)c(O)c4c3C2=O)NC(=O)/C(C)=C\\C=C\\[C@H](C)[C@H](O)[C@@H](C)[C@@H](O)[C@@H](C)[C@H](OC(C)=O)[C@@H]1C", "note": "[Rifampin]", "Relative cell viability (%)": 76.69}
{"molecule": "CCN(CC)CCOC(=O)C(c1ccccc1)c1ccccc1", "note": "[Adiphenine HCl]", "Relative cell viability (%)": 119.6}
{"molecule": "OCCN(CCO)c1nc(N2CCCCC2)c2nc(N(CCO)CCO)nc(N3CCCCC3)c2n1", "note": "[Dipyridamole]", "Relative cell viability (%)": 52.54}
{"molecule": "NC(=O)c1cnccn1", "note": "[Pyrazinamide]", "Relative cell viability (%)": 83.05}
{"molecule": "N[C@@H]1CN(c2c(F)cc3c(=O)c(C(=O)O)cn([C@@H]4C[C@@H]4F)c3c2Cl)CC12CC2", "note": "[Sitafloxacin Hydrate]", "Relative cell viability (%)": 126.1}
{"molecule": "C[C@]12CCC3=C4CCC(=O)C=C4CC[C@H]3[C@@H]1CC[C@@]2(O)CC#N", "note": "[Dienogest]", "Relative cell viability (%)": 96.11}
{"molecule": "CC(C)(C)C(=O)C(Oc1ccc(Cl)cc1)n1ccnc1", "note": "(stereo not drawn) [Climbazole]", "Relative cell viability (%)": 83.94}
{"molecule": "CO[C@H]1/C=C/O[C@@]2(C)Oc3c(C)c(O)c4c(c3C2=O)C2=NC3(CCN(CC(C)C)CC3)NC2=C(NC(=O)/C(C)=C\\C=C\\[C@H](C)[C@H](O)[C@@H](C)[C@@H](O)[C@@H](C)[C@H](OC(C)=O)[C@@H]1C)C4=O", "note": "[Rifabutin]", "Relative cell viability (%)": 70.34}
{"molecule": "CCc1nc(N)nc(N)c1-c1ccc(Cl)cc1", "note": "[Pyrimethamine]", "Relative cell viability (%)": 41.03}
{"molecule": "CCCCCCCCc1ccc(CCC(N)(CO)CO)cc1", "note": "[Fingolimod (FTY720) HCl]", "Relative cell viability (%)": 0}
{"molecule": "COc1ccc(C[C@@H](C)NC[C@H](O)c2ccc(O)c(NC=O)c2)cc1", "note": "(racemic) [Formoterol Hemifumarate]", "Relative cell viability (%)": 95.63}
{"molecule": "C[N+](C)(C)CCO", "note": "[Choline Chloride]", "Relative cell viability (%)": 79.39}
{"molecule": "CC(S)C(=O)NCC(=O)O", "note": "(stereo not drawn) [Tiopronin]", "Relative cell viability (%)": 149.2}
{"molecule": "CCN(CC)CC#CCOC(=O)C(O)(c1ccccc1)C1CCCCC1", "note": "(stereo not drawn) [Oxybutynin]", "Relative cell viability (%)": 58.9}
{"molecule": "CC(N)C12CC3CC(CC(C3)C1)C2", "note": "(stereo not drawn) [Rimantadine]", "Relative cell viability (%)": 127.5}
{"molecule": "C[C@]12CCC(=O)C=C1[C@@H]1C[C@@H]1[C@H]1[C@@H]3[C@@H]4C[C@@H]4[C@@]4(CCC(=O)O4)[C@@]3(C)CC[C@@H]12", "note": "[Drospirenone]", "Relative cell viability (%)": 86.76}
{"molecule": "CC(=O)OCC(=O)[C@@]12OC(C)(C)O[C@@H]1C[C@H]1[C@@H]3C[C@H](F)C4=CC(=O)C=C[C@]4(C)[C@@]3(F)[C@@H](O)C[C@@]12C", "note": "[Fluocinonide]", "Relative cell viability (%)": 56.31}
{"molecule": "O=C(/C=C\\n1cnc(-c2cc(C(F)(F)F)cc(C(F)(F)F)c2)n1)NNc1cnccn1", "note": "[KPT-330]", "Relative cell viability (%)": 44.44}
{"molecule": "COc1cc(/C=C/C(=O)N2CCN(CC(=O)N3CCCC3)CC2)cc(OC)c1OC", "note": "[Cinepazide maleate]", "Relative cell viability (%)": 86.89}
{"molecule": "Cc1oncc1C(=O)Nc1ccc(C(F)(F)F)cc1", "note": "[Leflunomide]", "Relative cell viability (%)": 55.61}
{"molecule": "O=C(CCCCCCNC(=O)c1cnc(N(c2ccccc2)c2ccccc2)nc1)NO", "note": "[Rocilinostat (ACY-1215)]", "Relative cell viability (%)": 32.91}
{"molecule": "OC[C@H]1O[C@@H](c2ccc(Cl)c(Cc3ccc(O[C@H]4CCOC4)cc3)c2)[C@H](O)[C@@H](O)[C@@H]1O", "note": "[Empagliflozin (BI 10773)]", "Relative cell viability (%)": 75.21}
{"molecule": "CC[C@H](C)C(=O)O[C@H]1C[C@H](O)C=C2C=C[C@H](C)[C@H](CC[C@@H](O)C[C@@H](O)CC(=O)O)[C@H]21", "note": "[Pravastatin sodium]", "Relative cell viability (%)": 89.81}
{"molecule": "C[N+]1(C)[C@@H]2C[C@@H](OC(=O)[C@H](CO)c3ccccc3)C[C@H]1[C@@H]1O[C@@H]12", "note": "[Methscopolamine]", "Relative cell viability (%)": 132.5}
{"molecule": "Cc1cnc(NC(=O)C2=C(O)c3ccccc3S(=O)(=O)N2C)s1", "note": "[Meloxicam]", "Relative cell viability (%)": 51.27}
{"molecule": "O=P1(NCCCl)OCCCN1CCCl", "note": "(stereo not drawn) [Ifosfamide]", "Relative cell viability (%)": 92.99}
{"molecule": "CO[C@H]1O[C@@H]2O[C@@]3(C)CC[C@H]4[C@H](C)CC[C@@H]([C@H]1C)[C@@]24OO3", "note": "[Artemether]", "Relative cell viability (%)": 126.1}
{"molecule": "Cc1cnc(C(=O)O)c[n+]1[O-]", "note": "[Acipimox]", "Relative cell viability (%)": 94.49}
{"molecule": "Cc1ccc(NC(=O)c2ccc(CN3CC[C@H](N(C)C)C3)c(C(F)(F)F)c2)cc1Nc1nccc(-c2cncnc2)n1", "note": "[Bafetinib (INNO-406)]", "Relative cell viability (%)": 4.206}
{"molecule": "C[C@H](CCC(=O)O)[C@H]1CC[C@H]2[C@@H]3[C@H](O)C[C@@H]4C[C@H](O)CC[C@]4(C)[C@H]3CC[C@]12C", "note": "[Chenodeoxycholic Acid]", "Relative cell viability (%)": 60.17}
{"molecule": "CCn1cc(C(=O)O)c(=O)c2cc(F)c(N3CCNCC3)nc21", "note": "[Enoxacin]", "Relative cell viability (%)": 74.15}
{"molecule": "Nc1nc(N)nc(NC2CC2)n1", "note": "[Cyromazine]", "Relative cell viability (%)": 68.48}
{"molecule": "CCC(COC(=O)c1cc(OC)c(OC)c(OC)c1)(c1ccccc1)N(C)C", "note": "(stereo not drawn) [Trimebutine]", "Relative cell viability (%)": 107.3}
{"molecule": "CC[C@H](C)C(=O)O[C@H]1C[C@@H](C)C=C2C=C[C@H](C)[C@H](CC[C@@H]3C[C@@H](O)CC(=O)O3)[C@H]21", "note": "[Lovastatin]", "Relative cell viability (%)": 169.7}
{"molecule": "CN(N=O)C(=O)N[C@@H](C=O)[C@@H](O)[C@H](O)[C@H](O)CO", "note": "[Streptozotocin (STZ)]", "Relative cell viability (%)": 74.3}
{"molecule": "C[N+](C)(C)CC(O)CC(=O)[O-]", "note": "(racemic) [DL-Carnitine HCl]", "Relative cell viability (%)": 125.5}
{"molecule": "Cc1nc2c([nH]1)-c1ccccc1N(C(=O)c1ccc(NC(=O)c3ccccc3-c3ccccc3)cc1)CC2", "note": "[Conivaptan HCl]", "Relative cell viability (%)": 109}
{"molecule": "COc1cc2c(cc1OC)[C@H]1CC(=O)[C@H](CC(C)C)CN1CC2", "note": "(racemic) [Tetrabenazine (Xenazine)]", "Relative cell viability (%)": 97.03}
{"molecule": "CC(=O)Oc1ccccc1C(=O)O", "note": "[Aspirin]", "Relative cell viability (%)": 63.59}
{"molecule": "Cc1ccc(-n2nc(C(C)(C)C)cc2NC(=O)NCc2cc(F)ccc2Oc2ccc3c(cnn3CCO)c2)cc1", "note": "[Pexmetinib (ARRY-614)]", "Relative cell viability (%)": 47.01}
{"molecule": "O=c1sn(-c2cccc3ccccc23)c(=O)n1Cc1ccccc1", "note": "[Tideglusib]", "Relative cell viability (%)": 51.94}
